Results from patent publication US8603518B2, “Hydroxybutyrate and poly-hydroxybutyrate as components of animal feed or feed additives” (Universiteit Gent, priority 2006, dated 2013).

What was measured:
broiler chickens [1] = assay: Growth performance trial with broiler chickens, day 8 to day 22 (Rhodobacter sphaeroides biomass); format: in vivo, chickens (ROSS PM3); conditions: dose 10 mg/kg
Method: A growth performance trial with broiler chickens was performed from day 8 to day 22. The chickens were housed in wire-floored battery cages. From day-old until day 8, the chickens were fed a pre-experimental diet based on wheat, maize and soybean meal. In the experimental period (day 8 to 22) the chickens received diets based on wheat, rye and soybean meal (composition see Table 1). Groups of birds were weighed on days 8, 15, and 22. The feed consumption for the intermediate periods was determined and body weight gain and feed conversion ratio were calculated.

broiler chickens [2] = assay: Second broiler chicken growth trial with crystalline PHB, day 8 to day 29; format: in vivo; conditions: Day 8-29; dose 10 mg/kg
[3] = tested on: Artemia nauplii infected with Vibrio campbellii LMG21363; assay: In vivo challenge test of Artemia nauplii with Vibrio campbellii LMG21363 (Example 8); design: species or system Artemia franciscana; conditions: 2 days challenge, mean ± standard error
Method: All challenge tests were performed with high quality hatching cysts of Artemia franciscana (EG® Type, batch 6940, INVE Aquaculture, Baasrode, Belgium). Two hundred mg of cysts were hydrated in 18 ml of tap water during 1 h. Sterile cysts and nauplii were obtained via decapsulation, adapted from the protocol described by Marques et al. (2004). […] The decapsulation was stopped after 2 min by adding 14 ml of Na2S2O3 (10 gl^−1). During the reaction, 0.22 μm filtered aeration was provided. The decapsulated cysts were washed with autoclaved artificial seawater containing 35 g l^−1 of Instant Ocean synthetic sea salt (Aquarium Systems Inc., Sarrebourg, France). The cysts were resuspended in a 50 ml tube containing 30 ml of filtered and autoclaved artificial seawater and hatched for 24 h on a rotor (4 min^−1) at 28° C. with constant illumination (approximately 2000 lux). Vibrio campbellii LMG21363 was stored in 40% glycerol at −80° C. Ten μl of this stored culture was inoculated into fresh Marine Broth (Difco Laboratories, Detroit, USA) and incubated overnight at 28° C. under constant agitation (100 min-1). The grown cultures of Vibrio campbellii were washed in autoclaved artificial seawater and the suspensions were diluted to an OD600 of approximately 0.1. 20 μl of the diluted suspensions was inoculated into the Artemia culture water. Aeromonas hydrophila LVS3 was used as feed for the nauplii (Defoirdt et al., 2005). The strain was grown overnight on Marine Agar (Difco Laboratories, Detroit, USA), suspended in sterile artificial seawater, diluted to an OD600 of approximately 1 and autoclaved. 300 μl of the autoclaved suspension was added to the Artemia culture water. […] Challenge tests were performed as described by Defoirdt et al. (2005), with slight modifications. Briefly, after hatching, groups of 20 nauplii were transferred to new sterile 50 ml tubes that contained 20 ml of filtered and autoclaved artificial seawater. The tubes were inoculated with Vibrio campbellii LMG21363 (except for the control, where no pathogen was added) and fed with LVS3. For the experiment with fatty acids, the fatty acids were dissolved in artificial seawater at different concentrations (25, 50 and 100 mM). The pH of the solutions was brought back to 7 and the solutions were filtersterilised over a 0.22 μm filter (Millipore, Bedford, USA). After feeding and the addition of the appropriate chemical and/or bacteria, the falcon tubes were put back on the rotor and kept at 28° C. […] All manipulations were done under a laminar flow hood in order to maintain sterility of the cysts and nauplii. Each treatment was done in triplicate.

[4] = tested on: Vibrio campbellii LMG21363; assay: Growth of Vibrio campbellii LMG21363 in LB medium (OD600); format: cell-based; conditions: pH 6
Method: Vibrio campbellii LMG21363 was grown overnight in LB medium on a shaker at 28° C. Subsequently, the suspension was diluted 1:50 (v/v) in LB medium supplemented with butyrate (Sigma-Aldrich, Bornem, Belgium) or β-hydroxybutyrate (Sigma-Aldrich, Bornem, Belgium). For each compound, three solutions were made with the following concentrations: 25, 50 and 100 mM. LB medium without supplements was used as a control. The pH of all solutions was set at 6, 7 or 8. After inoculation, the suspensions were incubated at 28° C. in a static mode. Growth was monitored by measuring the optical density (OD600) during 20 h. Each treatment was performed in triplicate.

[5] = 25 mM in culture water at start
[6] = 100 mM in culture water at start

## COC[C@H]1O[C@@H](OC2OC[C@@H]3O[C@]4(O[C@H]3[C@H]2OC(=O)C(C)C)O[C@H](C)[C@@](O)(C(C)=O)[C@@H]2OCO[C@H]24)[C@@H](OC)[C@@H](O)[C@@H]1O[C@@H]1O[C@H](C)[C@H](OC)[C@H](O[C@H]2C[C@@]3(C)OC4(C[C@@H](O)[C@H](O[C@H]5C[C@@H](O)[C@H](OC(=O)c6c(C)c(Cl)c(O)c(Cl)c6OC)[C@@H](C)O5)[C@@H](C)O4)O[C@@H]3[C@@H](C)O2)[C@H]1O (stereo partly drawn) [Avilamycin]
Broiler chickens [1]; Day 8-15
  Feed conversion: 1.652 ± 0.090 g feed/g gain
  Feed intake: 552 ± 43 g/bird
  Weight gain: 334 ± 20 g/bird
Broiler chickens [1]; Day 8-22
  Feed conversion: 1.778 ± 0.072 g feed/g gain
  Feed conversion relative to control (control 100.0): 94.9
  Feed intake: 1441 ± 100 g/bird
  Feed intake relative to control (control 100.0): 101.1
  Weight gain: 810 ± 39 g/bird
  Weight gain relative to control (control 100.0): 106.7
Broiler chickens [1]; Day 15-22
  Feed conversion: 1.867 ± 0.078 g feed/g gain
  Feed intake: 889 ± 67 g/bird
  Weight gain: 476 ± 24 g/bird
Broiler chickens [2]
  FCR: 1.756 ± 0.079 g feed/g gain
  FCR, % of control: 94.5%
  Feed intake: 2402 ± 196 g/bird
  Feed intake, % of control: 101.0%
  Weight gain: 1367 ± 85 g/bird
  Weight gain, % of control: 106.6%

## CCCC(=O)O [butyrate]
[3]; [5]
  Survival: 48 ± 2 %
[3]; [6]
  Survival: 50 ± 5 %

## CC(O)CC(=O)O (stereo not drawn) [β-hydroxybutyrate, 3-hydroxybutyrate]
[4]; 100 mM
  Growth of Vibrio campbellii: strongly inhibited
[4]; lower concentrations
  Growth of Vibrio campbellii: not completely inhibited
[3]; [5]
  Survival: 38 ± 15%
[3]; [6]
  Survival: 40 ± 3 %
